Laboratory results as given in ChEMBL document CHEMBL4359915, “Design, synthesis and biological evaluation of novel diazaspiro[4.5]decan-1-one derivatives as potential chitin synthase inhibitors and antifungal agents” (Eur J Med Chem, 2019).
In brackets after ≈: the same amount, converted by molar mass.

How the values were obtained:
Staphylococcus aureus [1] = test: Antibacterial activity against Staphylococcus aureus ATCC 25923 assessed as growth inhibition measured after 24 hrs by two-fold broth dilution method; format: functional; details: ATCC 25923, 24 h
Candida albicans [2] = test: Antifungal activity against Candida albicans ATCC 76615 after 24 hrs in presence of fluconazole by two-dimensional broth microdilution checkboard assay; format: functional; details: ATCC 76615, 24 h
Cryptococcus neoformans [3] = test: Antifungal activity against Cryptococcus neoformans ATCC 32719 assessed as fractional inhibitory concentration index after 24 hrs in presence of fluconazole by two-dimensional broth microdilution checkboard assay; format: functional
Candida albicans [4] = test: Antifungal activity against Candida albicans ATCC 76615 assessed as fluconazole MIC after 24 hrs in presence of fluconazole by two-dimensional broth microdilution checkboard assay; format: functional; details: ATCC 76615, 24 h
Pseudomonas aeruginosa = test: Antibacterial activity against Pseudomonas aeruginosa ATCC 9027 assessed as growth inhibition measured after 24 hrs by two-fold broth dilution method; format: functional; details: ATCC 9027, 24 h
Proteus vulgaris = test: Antibacterial activity against Bacillus proteus ATCC 8427 assessed as growth inhibition measured after 24 hrs by two-fold broth dilution method; format: functional; details: ATCC 8427, 24 h
Cryptococcus neoformans [5] = test: Antifungal activity against Cryptococcus neoformans ATCC 32719 assessed as growth inhibition measured after 24 hrs by two-fold broth dilution method; format: functional; details: ATCC 32719, 24 h
Cryptococcus neoformans [6] = test: Antifungal activity against Cryptococcus neoformans ATCC 32719 assessed as fluconazole MIC after 24 hrs in presence of fluconazole by two-dimensional broth microdilution checkboard assay; format: functional; details: ATCC 32719, 24 h
Candida albicans [7] = test: Antifungal activity against Candida albicans ATCC 76615 assessed as growth inhibition measured after 24 hrs by two-fold broth dilution method; format: functional; details: ATCC 76615, 24 h
Candida albicans [8] = test: Antifungal activity against Candida albicans ATCC 76615 assessed as fractional inhibitory concentration index after 24 hrs in presence of fluconazole by two-dimensional broth microdilution checkboard assay; format: functional
Aspergillus flavus [9] = test: Antifungal activity against Aspergillus flavus ATCC 16870 after 24 hrs in presence of fluconazole by two-dimensional broth microdilution checkboard assay; format: functional; details: ATCC 16870, 24 h
Staphylococcus aureus [10] = test: Antibacterial activity against methicillin-resistant Staphylococcus aureus N315 assessed as growth inhibition measured after 24 hrs by two-fold broth dilution method; format: functional; details: N315, 24 h
Aspergillus fumigatus [11] = test: Antifungal activity against Aspergillus fumigatus GIMCC 3.19 assessed as fractional inhibitory concentration index after 24 hrs in presence of fluconazole by two-dimensional broth microdilution checkboard assay; format: functional
Aspergillus fumigatus [12] = test: Antifungal activity against Aspergillus fumigatus GIMCC 3.19 after 24 hrs in presence of fluconazole by two-dimensional broth microdilution checkboard assay; format: functional; details: GIMCC 3.19, 24 h
Candida tropicalis = test: Inhibition of Candida tropicalis ATCC 750 chitin synthase at 300 ug/ml using UDP-GlcNAc as substrate relative to control
Aspergillus flavus [13] = test: Antifungal activity against Aspergillus flavus ATCC 16870 assessed as growth inhibition measured after 24 hrs by two-fold broth dilution method; format: functional; details: ATCC 16870, 24 h
Escherichia coli = test: Antibacterial activity against Escherichia coli JM 109 assessed as growth inhibition measured after 24 hrs by two-fold broth dilution method; format: functional; details: JM 109, 24 h
Bacillus spizizenii = test: Antibacterial activity against Bacillus subtilis ATCC 6633 assessed as growth inhibition measured after 24 hrs by two-fold broth dilution method; format: functional; details: ATCC 6633, 24 h
Aspergillus fumigatus [14] = test: Antifungal activity against Aspergillus fumigatus GIMCC 3.19 assessed as fluconazole MIC after 24 hrs in presence of fluconazole by two-dimensional broth microdilution checkboard assay; format: functional; details: GIMCC 3.19, 24 h
Candida albicans [15] = test: Antifungal activity against Candida albicans ATCC 90023 assessed as growth inhibition measured after 24 hrs by two-fold broth dilution method; format: functional; details: ATCC 90023, 24 h
[16] = Inhibition of Candida tropicalis ATCC 750 chitin synthase using UDP-GlcNAc as substrate
Aspergillus fumigatus [17] = test: Antifungal activity against Aspergillus fumigatus GIMCC 3.19 assessed as growth inhibition measured after 24 hrs by two-fold broth dilution method; format: functional; details: GIMCC 3.19, 24 h
Cryptococcus neoformans [18] = test: Antifungal activity against Cryptococcus neoformans ATCC 32719 after 24 hrs in presence of fluconazole by two-dimensional broth microdilution checkboard assay; format: functional; details: ATCC 32719, 24 h
Aspergillus flavus [19] = test: Antifungal activity against Aspergillus flavus ATCC 16870 assessed as fluconazole MIC after 24 hrs in presence of fluconazole by two-dimensional broth microdilution checkboard assay; format: functional; details: ATCC 16870, 24 h
Aspergillus flavus [20] = test: Antifungal activity against Aspergillus flavus ATCC 16870 assessed as fractional inhibitory concentration index after 24 hrs in presence of fluconazole by two-dimensional broth microdilution checkboard assay; format: functional
[21] = Inhibition of Saccharomyces cerevisiae CGMCC 2.145 chitin synthase using GlcNAc and UDP-GlcNAc as substrate incubated for 60 mins by microplate reader analysis

SMILES | MIC (Staphylococcus aureus [1]) [µM] | MIC (Candida albicans [2]) [µM] | fractional inhibitory concentration index (FICI) (Cryptococcus neoformans [3]) | MIC (Candida albicans [4]) [µM] | MIC (Pseudomonas aeruginosa) [µM] | MIC (Proteus vulgaris) [µM] | MIC (Cryptococcus neoformans [5]) | MIC (Cryptococcus neoformans [6]) [µM] | MIC (Candida albicans [7]) | fractional inhibitory concentration index (FICI) (Candida albicans [8]) | MIC (Aspergillus flavus [9]) [µM] | MIC (Staphylococcus aureus [10]) [µM] | fractional inhibitory concentration index (FICI) (Aspergillus fumigatus [11]) | MIC (Aspergillus fumigatus [12]) [µM] | inhibition (Candida tropicalis) [%] | MIC (Aspergillus flavus [13]) | MIC (Escherichia coli) [µM] | MIC (Bacillus spizizenii) [µM] | MIC (Aspergillus fumigatus [14]) [µM] | MIC (Aspergillus fumigatus [17]) | further results
O=C(Nc1ccc(F)c(Cl)c1)[C@H](O)[C@@H](O)C(=O)N1CCC2(CCNC2=O)CC1 | 310 (≈ 128 µg/mL) | 77 | 2.3 | 52 | 620 (≈ 257 µg/mL) | 310 (≈ 128 µg/mL) | 309 µM | 104 | 309 µM | 1.3 | 77 | 150 (≈ 62.1 µg/mL) | 1.5 | 155 | 70.6 | 155 µM | 310 (≈ 128 µg/mL) | 620 (≈ 257 µg/mL) | 52 | 155 µM | MIC (Candida albicans [15]): 150 µM (≈ 62.1 µg/mL); IC50 [16]: 220 µM; MIC (Cryptococcus neoformans [18]): 77 µM; MIC (Aspergillus flavus [19]): 104 µM; fractional inhibitory concentration index (FICI) (Aspergillus flavus [20]): 1
COc1ccc(NC(=O)[C@H](O)[C@@H](O)C(=O)N2CCC3(CCNC3=O)CC2)cc1 | 330 (≈ 129 µg/mL) | 164 | 1.5 | 52 | 1310 (≈ 513 µg/mL) | 330 (≈ 129 µg/mL) | 327 µM | 26 | 164 µM | 2 | 82 | 650 (≈ 254 µg/mL) | 1 | 41 | 78.3 | 164 µM | 330 (≈ 129 µg/mL) | 1310 (≈ 513 µg/mL) | 52 | 82 µM | MIC (Candida albicans [15]): 330 µM (≈ 129 µg/mL); IC50 [16]: 120 µM; MIC (Cryptococcus neoformans [18]): 327 µM; MIC (Aspergillus flavus [19]): 52 µM; fractional inhibitory concentration index (FICI) (Aspergillus flavus [20]): 0.8
O=C(Nc1ccc(Cl)cc1)[C@H](O)[C@@H](O)C(=O)N1CCC2(CCNC2=O)CC1 | 320 (≈ 127 µg/mL) | 10 | 2 | 13 | 1290 (≈ 511 µg/mL) | 650 (≈ 257 µg/mL) | 162 µM | 52 | 162 µM | 0.3 | 162 | 650 (≈ 257 µg/mL) | 0.8 | 81 | 66.5 | 323 µM | 320 (≈ 127 µg/mL) | 1290 (≈ 511 µg/mL) | 52 | 323 µM | MIC (Candida albicans [15]): 320 µM (≈ 127 µg/mL); IC50 [16]: 270 µM; MIC (Cryptococcus neoformans [18]): 162 µM; MIC (Aspergillus flavus [19]): 104 µM; fractional inhibitory concentration index (FICI) (Aspergillus flavus [20]): 1
O=C(Nc1cc(C(F)(F)F)cc(C(F)(F)F)c1)[C@H](O)[C@@H](O)C(=O)N1CCC2(CCNC2=O)CC1 | 1030 (≈ 512 µg/mL) | 16 | 3 | 26 | 510 (≈ 254 µg/mL) | 1030 (≈ 512 µg/mL) | 64 µM | 52 | 32 µM | 1 | 129 | 260 (≈ 129 µg/mL) | 0.8 | 129 | 2.3 | 515 µM | 60 (≈ 29.8 µg/mL) | 510 (≈ 254 µg/mL) | 52 | 515 µM | MIC (Candida albicans [15]): 260 µM (≈ 129 µg/mL); MIC (Cryptococcus neoformans [18]): 129 µM; MIC (Aspergillus flavus [19]): 52 µM; fractional inhibitory concentration index (FICI) (Aspergillus flavus [20]): 0.5
COc1ccc(N2CCN(C(=O)[C@H](O)[C@@H](O)C(=O)Nc3c(O)c4cc(O)ccc4oc3=O)CC2)cc1 |  |  |  |  |  |  | 16 to 64 µg/mL |  | 16 to 64 µg/mL |  |  |  |  |  |  | 16 to 64 µg/mL |  |  |  | 16 to 64 µg/mL | IC50 [21]: 100 µM
